Results as given in US20200237871A1, “METHODS FOR MITIGATING LIVER INJURY AND PROMOTING LIVER HYPERTROPHY, REGENERATION AND CELL ENGRAFTMENT IN CONJUNCTION WITH RADIATION AND/OR RADIOMIMETIC TREATMENTS” (Janssen Pharmaceutica NV, priority 2019, published 2020).

Key:
DPPIV−/− knockout mice = test: LSEC engraftment/repopulation of irradiated liver by DPPIV staining (Examples 2 and 3); assay type: in vivo, mouse; conditions: targeted liver irradiation (50 Gy)
Description: 8-12-week-old male and female Di-peptyl peptidase IV (DPPIV) −/− knockout mice and 8-12-week-old male and female C57Bl6 mice were used in this study. Animals were weighed in the beginning of the experiment and before tissue collection. All animals were housed in the Institute for Animal Studies at Albert Einstein College of medicine and fed regular rodent chow. All experiments were performed to according to protocols approved by Institutional Animal Care and Use Committee at Albert Einstein College of Medicine. Animals were made cirrhotic using CCl4 administration (intraperitoneal [IP] injections twice a week for at least 11 weeks).
Image-guided external beam irradiation was performed using a small animal radiation research platform (SARRP, Xstrahl Inc., Suwanee, Ga.). Mice were given gastrografin contrast through gavage to improve visualization of the gastrointestinal (GI) tract. After approximately 2 minutes, mice were positioned on a tubular couch and anesthetized with ˜2% Isofluorane (Isothesia, USP) in 2 L/min pure oxygen. A cone-beam computed tomography (CBCT) scan was acquired and a treatment plan irradiating the median lobe and right lobe was generated using the MuriPlan software. […] Within the targeted lobes, the position of the isocenter was chosen to minimize irradiation of the GI tract, spine, and heart (the maximum dose to these organs was kept below 10 Gy). Targets were irradiated with 50 Gy X-rays at 220 kVp energy and 13 mA tube current (dose rate of 2.4-2.5 Gy/min) using a 1 mm copper filter for beam hardening.
TPOm was diluted in sterile PBS to a 10 mg/ml stock. The stock was stored at −20° C. and allowed to come to room temperature prior to administration. TPOm was administered as a single dose (300 μg/kg) via subcutaneous injection 10 minutes after the transplant procedure.
DPPIV was selected as a marker for engraftment of exogenous LSECs in the DPPIV (−/−) animals. […] Slide imaging was done using a Perkin Elmer P250 High Capacity Slide Scanner.
LSECs were isolated from the single-cell suspension using CD146 microbeads (Miltenyi Biotec GmbH #130-092-007).
Following isolation of LSECs, 500×10^5 LSECs are transplanted via intrasplenic injection into healthy adult mice anesthetized with Isoflurane (Isothesia, USP) 24 hrs post HIR. Buprenorphine is given post-op as an analgesic.
To test the efficacy of TPOm as an agent that can cause LSEC engraftment, DPPIV−/− knockout mice received 50GY hepatic irradiation (HIR) to the median and right lobes of the liver using external-beam CT-guided x-ray irradiation, and LSECs that express DPPIV (FIG. 2A).
The methods were identical to those described above with the exception that the LSEC transplant was administered 4-5 days post irradiation and the TPOm or Romiplostim were administered approximately 10 minutes post LSEC transplant.

DPPIV KO mice = test: Engraftment of transplanted LSECs and hepatocytes by DPPIV immunostaining after HIR (Example 7); assay type: in vivo, mouse; conditions: Study A; 2 months after HIR; 50 Gy; LSECs 4 or 5 days after HIR; 300 μg/kg intraperitoneally 10 minutes after LSEC transplantation
Description: 8-12-week-old male Di-peptyl peptidase IV knockout (Dppiv^−/−) mice and 8-12-week-old male C57BL/6 mice were used in this study.
The methods were identical to Experiment 5 as described above; including the preparation of test articles (solutions of RWJ-800088), isolation and transplant of LSECs, and Hepatic irradiation. In addition, Romiplostim was purchased from pharmacy and came in 250 μg powder. It was reconstituted per manufacturers description using solvent for solution for injection. After reconstitution, a deliverable volume of 0.5 mL solution contained 250 μg of romiplostim (500 μg/mL).
Animals were weighed in the beginning of the experiment.
The mice were transplanted with DPPIV^+ 5×10^5 liver sinusoidal endothelial cells (LSECs) intrasplenically 4 or 5 days later. The mice were then injected with 300 μg/kg of RWJ-800088 or Romiplostim intraperitoneally 10 minutes after LSEC transplantation as shown in Table 7.
The mice were then monitored until they made a full recovery and returned to the cage. The mice were followed for 2 and 5 months and necropsied. The liver was excised and prepared for the frozen section. The immunostaining of DPPIV activity was performed to examine the repopulation of the transplanted DPPIV^+ cells in the liver. […]

Substance: romiplostim [reference compound]
- Engraftment when LSEC transplant is administered 24 hours post irradiation (DPPIV−/− knockout mice): Yes
- Engraftment when LSEC transplant is administered 4-5 days post irradiation (DPPIV−/− knockout mice; drug approximately 10 minutes post LSEC transplant): Yes
- repopulation of LSECs in the irradiated liver tissue (DPPIV immunostaining) (DPPIV KO mice): repopulation of LSECs in the irradiated liver tissue was observed
